The record followed here is patent US20260356851A1, “TRICYCLIC COMPOUNDS AND USES THEREOF” (HUTCHMED LIMITED, priority 2023, published 2026).

Format in all cases: cell-based
Assay [1] addresses T1, pERK1/2 (Thr202/Tyr204), NCI-1H358 (KRAS G12C) (Homo sapiens, UniProt P01116, G12C).
T1 construct: pERK1/2 HTRF read-out
The assay can be described thus: Assay of intracellular pERK1/2 (Thr202/Tyr204) phosphorylation in NCI-H358 cells (KRAS G12C). As to conditions: pERK1/2, 2 days, read-out: NCI-H358 (KRAS G12C) IC50. The procedure, abridged:
(§1)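 Cells (10000-12000/well) exposed to 3-fold compound dilutions for 2 days at 37 °C, then lysed; pERK1/2 (Thr202/Tyr204) measured by HTRF with d2 and cryptate antibodies, 665/615 nm ratio.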

Assay [2] concerns the target T2, pERK1/2 (Thr202/Tyr204), PANC-1 (KRAS G121D) (Homo sapiens, UniProt P01116, G12D).
T2 construct: pERK1/2 HTRF read-out
Nature of the assay: Assay of intracellular pERK1/2 (Thr202/Tyr204) phosphorylation in PANC-1 cells (KRAS G12D). As to conditions: pERK1/2, 2 days, read-out: PANC-1 (KRAS G12D) IC50. The procedure, abridged: as §1

The target of assay [3] is T3, pERK1/2 (Thr202/Tyr204), NCI-1H441 (KRAS G12V) (Homo sapiens, UniProt P01116, G12V).
T3 construct: pERK1/2 HTRF read-out
Nature of the assay: Assay of intracellular pERK1/2 (Thr202/Tyr204) phosphorylation in NCI-H441 cells (KRAS G12V). The settings on record: pERK1/2, 2 days, read-out: NCI-H441 (KRAS G12V) IC50. The procedure, abridged: as §1

T2 sequence (P01116 1-188 isoform P01116-2 G12D): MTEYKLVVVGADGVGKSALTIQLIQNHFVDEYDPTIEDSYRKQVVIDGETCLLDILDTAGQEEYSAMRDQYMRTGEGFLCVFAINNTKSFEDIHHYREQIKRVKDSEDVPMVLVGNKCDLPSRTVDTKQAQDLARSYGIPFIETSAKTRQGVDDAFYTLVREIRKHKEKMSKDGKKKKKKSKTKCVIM
T3 sequence (P01116 1-188 isoform P01116-2 G12V): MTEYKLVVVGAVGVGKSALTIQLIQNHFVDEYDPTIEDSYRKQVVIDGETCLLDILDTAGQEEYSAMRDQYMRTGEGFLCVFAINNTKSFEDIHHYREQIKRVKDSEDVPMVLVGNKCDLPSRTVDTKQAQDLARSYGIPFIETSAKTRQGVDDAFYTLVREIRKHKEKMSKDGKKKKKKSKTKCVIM
T1 sequence (P01116 1-188 isoform P01116-2 G12C): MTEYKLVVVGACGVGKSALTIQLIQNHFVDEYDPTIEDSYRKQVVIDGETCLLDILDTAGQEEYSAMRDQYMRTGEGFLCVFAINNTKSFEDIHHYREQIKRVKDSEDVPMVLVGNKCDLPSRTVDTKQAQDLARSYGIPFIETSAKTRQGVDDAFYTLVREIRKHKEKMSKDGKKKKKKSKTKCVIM

`CCC(c1cccnc1N)N1CCOc2nc(-c3cc(N)c(F)c(F)c3C(F)(F)F)c(F)c3nc(OC[C@@]45CCCN4C[C@H](F)C5)nc1c23` (single isomer, unassigned) [Compound 216, 3-((R or S)-1-(5-(5-amino-3,4-difluoro-2-(trifluoromethyl)phenyl)-4-fluoro-2-(((2R,7aS)-2-fluorotetrahydro-1H-pyrrolizin-7a(5H)-yl)methoxy)-8,9-dihydro-10H-7-oxa-1,3,6,10-tetraazacyclohepta[de]naphthalen-10-yl)propyl)pyridin-2-amine]: the IC50 is 2 nM in assay [1], 48 nM in assay [2] and 2 nM in assay [3].
As for `CCC(c1cccnc1N)N1CCOc2nc(-c3cc(N)c(F)c(F)c3C(F)(F)F)c(F)c3nc(OC[C@@]45CCCN4C[C@H](F)C5)nc1c23` (single isomer, unassigned) [Compound 217, 3-((R or S)-1-(5-(5-amino-3,4-difluoro-2-(trifluoromethyl)phenyl)-4-fluoro-2-(((2R,7aS)-2-fluorotetrahydro-1H-pyrrolizin-7a(5H)-yl)methoxy)-8,9-dihydro-10H-7-oxa-1,3,6,10-tetraazacyclohepta[de]naphthalen-10-yl)propyl)pyridin-2-amine], the IC50 in assay [1], in assay [2] and in assay [3] was over 100 nM throughout.
As for `[2H]C1([2H])CC[C@@]2(COc3nc4c5c(nc(-c6cc(N)c(F)c(Cl)c6C(F)(F)F)c(F)c5n3)OC([2H])([2H])C([2H])([2H])N4[C@H](C)c3cccnc3N)C[C@@H](F)CN12` (single isomer, unassigned) [Compound 222, 3-((R or S)-1-(5-(5-amino-3-chloro-4-fluoro-2-(trifluoromethyl)phenyl)-4-fluoro-2-(((2R,7aS)-2-fluorotetrahydro-1H-pyrrolizin-7a(5H)-yl-5,5-d2)methoxy)-8,9-dihydro-10H-7-oxa-1,3,6,10-tetraazacyclohepta[de]naphthalen-10-yl-8,8,9,9-d4)ethyl)pyridin-2-amine], the IC50 is 0.1 nM in assay [1], 2 nM in assay [2] and 0.4 nM in assay [3].
Consider `[2H]C1([2H])CC[C@@]2(COc3nc4c5c(nc(-c6cc(N)c(F)c(Cl)c6C(F)(F)F)c(F)c5n3)OC([2H])([2H])C([2H])([2H])N4C(C)c3cccnc3N)C[C@@H](F)CN12` (single isomer, unassigned) [Compound 223, 3-((R or S)-1-(5-(5-amino-3-chloro-4-fluoro-2-(trifluoromethyl)phenyl)-4-fluoro-2-(((2R,7aS)-2-fluorotetrahydro-1H-pyrrolizin-7a(5H)-yl-5,5-d2)methoxy)-8,9-dihydro-10H-7-oxa-1,3,6,10-tetraazacyclohepta[de]naphthalen-10-yl-8,8,9,9-d4)ethyl)pyridin-2-amine], for which the figures for the IC50 in assay [1], in assay [2] and in assay [3] were 2 nM, 20 nM and 7 nM, respectively.
On the same counts, the results for `CC(c1cccnc1N)N1CCOc2nc(-c3cc(N)c(F)c(Cl)c3C(F)(F)F)c(F)c3nc(OC[C@@]45CCCN4CC4(CC4(F)F)C5)nc1c23` (single isomer, unassigned) [Compound 227] are 0.2 nM, 2 nM and 0.6 nM.
The matching figures for `Cc1c(F)c(N)cc(-c2nc3c4c(nc(OC[C@@]56CCCN5CC5(CC5(F)F)C6)nc4c2F)N(C(C)c2cccnc2N)CCO3)c1C(F)(F)F` (single isomer, unassigned) [Compound 228]: 0.2 nM, 0.8 nM and 0.5 nM.
On the same counts, the results for `Cc1c(F)c(N)cc(-c2nc3c4c(nc(OC[C@@]56CCCN5C[C@H](F)C6)nc4c2F)N(C(C)c2cccnc2N)C[C@@H](C)O3)c1C(F)(F)F` (single isomer, unassigned) [Compound 247, 3-((R or S)-1-((R)-5-(5-amino-4-fluoro-3-methyl-2-(trifluoromethyl)phenyl)-4-fluoro-2-(((2R,7aS)-2-fluorotetrahydro-1H-pyrrolizin-7a(5H)-yl)methoxy)-8-methyl-8,9-dihydro-10H-7-oxa-1,3,6,10-tetraazacyclohepta[de]naphthalen-10-yl)ethyl)pyridin-2-amine] are over 100 nM, over 100 nM and over 100 nM.
Regarding `Cc1c(F)c(N)cc(-c2nc3c4c(nc(OC[C@@]56CCCN5C[C@H](F)C6)nc4c2F)N(C(C)c2cccnc2N)C[C@@H](C)O3)c1C(F)(F)F` (single isomer, unassigned) [Compound 248, 3-((R or S)-1-((R)-5-(5-amino-4-fluoro-3-methyl-2-(trifluoromethyl)phenyl)-4-fluoro-2-(((2R,7aS)-2-fluorotetrahydro-1H-pyrrolizin-7a(5H)-yl)methoxy)-8-methyl-8,9-dihydro-10H-7-oxa-1,3,6,10-tetraazacyclohepta[de]naphthalen-10-yl)ethyl)pyridin-2-amine], the half-maximal inhibitory concentration (IC50) is 0.4 nM in assay [1], 8 nM in assay [2] and 1 nM in assay [3].
`Cc1c(F)c(N)cc(-c2nc3c4c(nc(OC[C@@]56CCCN5C[C@H](F)C6)nc4c2F)N(C(C)c2cccnc2N)[C@@H](C)CO3)c1C(F)(F)F` (single isomer, unassigned) [Compound 250, 3-((R or S)-1-((S)-5-(5-amino-4-fluoro-3-methyl-2-(trifluoromethyl)phenyl)-4-fluoro-2-(((2R,7aS)-2-fluorotetrahydro-1H-pyrrolizin-7a(5H)-yl)methoxy)-9-methyl-8,9-dihydro-10H-7-oxa-1,3,6,10-tetraazacyclohepta[de]naphthalen-10-yl)ethyl)pyridin-2-amine]: the IC50 stood at 0.1 nM in assay [1], 0.4 nM in assay [2] and 0.3 nM in assay [3].
On the same counts, the results for `Cc1ccc(C(C)N2CCOc3nc(-c4cc(N)c(F)c(C)c4C(F)(F)F)c(F)c4nc(OC[C@@]56CCCN5C[C@H](F)C6)nc2c34)c(N)n1` (single isomer, unassigned) [Compound 251, 3-((R or S)-1-(5-(5-amino-4-fluoro-3-methyl-2-(trifluoromethyl)phenyl)-4-fluoro-2-(((2R,7aS)-2-fluorotetrahydro-1H-pyrrolizin-7a(5H)-yl)methoxy)-8,9-dihydro-10H-7-oxa-1,3,6,10-tetraazacyclohepta[de]naphthalen-10-yl)ethyl)-6-methylpyridin-2-amine] are over 100 nM, over 100 nM and over 100 nM.
The matching figures for `Cc1c(F)c(N)cc(-c2nc3c4c(nc(OC[C@@]56CCCN5C[C@H](F)C6)nc4c2F)N(C(C)c2cccnc2N)C[C@H](C)O3)c1C(F)(F)F` (single isomer, unassigned) [Compound 253, 3-((R or S)-1-((S)-5-(5-amino-4-fluoro-3-methyl-2-(trifluoromethyl)phenyl)-4-fluoro-2-(((2R,7aS)-2-fluorotetrahydro-1H-pyrrolizin-7a(5H)-yl)methoxy)-8-methyl-8,9-dihydro-10H-7-oxa-1,3,6,10-tetraazacyclohepta[de]naphthalen-10-yl)ethyl)pyridin-2-amine]: over 100 nM, over 100 nM and over 100 nM.
In the case of `Cc1c(F)c(N)cc(-c2nc3c4c(nc(OC[C@@]56CCCN5C[C@H](F)C6)nc4c2F)N(C(C)c2cccnc2N)C[C@H](C)O3)c1C(F)(F)F` (single isomer, unassigned) [Compound 254, 3-((R or S)-1-((S)-5-(5-amino-4-fluoro-3-methyl-2-(trifluoromethyl)phenyl)-4-fluoro-2-(((2R,7aS)-2-fluorotetrahydro-1H-pyrrolizin-7a(5H)-yl)methoxy)-8-methyl-8,9-dihydro-10H-7-oxa-1,3,6,10-tetraazacyclohepta[de]naphthalen-10-yl)ethyl)pyridin-2-amine], the IC50 in assay [1] was found to be 2 nM; in assay [2], 43 nM; in assay [3] it was 10 nM.
The matching figures for `Cc1c(F)c(N)cc(-c2nc3c4c(nc(OC[C@@]56CCCN5C[C@H](F)C6)nc4c2F)N(C(C)c2cccnc2N)[C@H](C)CO3)c1C(F)(F)F` (single isomer, unassigned) [Compound 255, 3-((R or S)-1-((R)-5-(5-amino-4-fluoro-3-methyl-2-(trifluoromethyl)phenyl)-4-fluoro-2-(((2R,7aS)-2-fluorotetrahydro-1H-pyrrolizin-7a(5H)-yl)methoxy)-9-methyl-8,9-dihydro-10H-7-oxa-1,3,6,10-tetraazacyclohepta[de]naphthalen-10-yl)ethyl)pyridin-2-amine]: 37 nM, over 100 nM and over 100 nM.
With `Cc1c(F)c(N)cc(-c2nc3c4c(nc(OC[C@@]56CCCN5C[C@H](F)C6)nc4c2F)N(C(C)c2cccnc2N)[C@H](C)CO3)c1C(F)(F)F` (single isomer, unassigned) [Compound 256, 3-((R or S)-1-((R)-5-(5-amino-4-fluoro-3-methyl-2-(trifluoromethyl)phenyl)-4-fluoro-2-(((2R,7aS)-2-fluorotetrahydro-1H-pyrrolizin-7a(5H)-yl)methoxy)-9-methyl-8,9-dihydro-10H-7-oxa-1,3,6,10-tetraazacyclohepta[de]naphthalen-10-yl)ethyl)pyridin-2-amine], the IC50 in assay [1], in assay [2] and in assay [3] was over 100 nM in each case.

As a reminder, the IC50 is the concentration that inhibits the measured activity by half.
